From patent publication US20070099838A1, “Plant-derived peptides harboring water-cleaning and antimicrobial activities” (OPTIMA ENVIRONNEMENT S.A., priority 2003, published 2007)

Experiments:
[1] = Coagulating activity (coagulation agents for water treatment), graded relative to FLO; set-up: key: +++: higher activity than FLO; ++: equivalent activity of FLO; +: lower activity than FLO; −: no activity observed; details: coagulating activity compared with FLO
Source text: (§1) More information regarding the detailed description of the invention (e.g. material & methods, experimental results) can be found in international patent application PCT/CH03/00568 which is incorporated by reference.

[2] = Antimicrobial (antibiotic) activity, graded relative to FLO; assay type: cell-based; set-up: key: +++: higher activity than FLO; ++: equivalent activity of FLO; +: lower activity than FLO; −: no activity observed; details: antimicrobial activity compared with FLO
Source text: as §1

## RCGQQLRNISPPQRCPSLRQAVQLTHQQQGQ [P2.1, derivative of FLO]
[1]
  Coag.: −

## AVQLTHQQQGQV [P2c, derivative of FLO]
[2]
  antlbt.: −
[1]
  Coag.: −

## PQRCPSLRQAV [P2a, derivative of FLO]
[2]
  antlbt.: −
[1]
  Coag.: −

## PQRCPSLRQAVQLTHQQQGQV [P2, derivative of FLO]
[2]
  antlbt.: +
[1]
  Coag.: ++

## PQRCPSLRQAVQLTHQQQRQV [P2GR40, derivative of FLO]
[2]
  antlbt.: ++
[1]
  Coag.: +++

## PQRCPSLRQAVQLTHQ [P2ab, derivative of FLO]
[1]
  Coag.: ++

## SLRQAVQLTHQ [P2b, derivative of FLO]
[2]
  antlbt.: −
[1]
  Coag.: −

## QGPGRQPDFQRCGQQLRNISPP [P1, derivative of FLO]
[1]
  Coag.: −

## QGPGRQPDFQRCGQQLRNISPPQRCPSLRQAVQLTHQQQGQVGPQQRQMYRVASNIPST [Flo, protein called FLO, disclosed in WO 03/008441 A2; coagulation and antimicrobial agent, reference compound]
[2]
  antlbt.: ++
[1]
  Coag.: ++

## GQVGPQQVRQMYRVASNIPST [P3, derivative of FLO]
[2]
  antlbt.: −
[1]
  Coag.: −
